# Entries after “also recorded” stand apart in the source; their conditions may differ. Read-outs that look alike come from different tables or passages of the source.
# Columns and labels:
# [1] = test system: P. stewartii ΔesaI (ESN51); test: Mucoidy (exopolysaccharide) phenotypic assay on CPG agar; assay type: cell-based, Pantoea stewartii; details: concentration not given; CPG agar, ESN51
# Source text: In P. stewartii, EsaR regulates the production of the exopolysaccharide stewartan, which clogs the xylem of infected plants and leads to the wilt and lesions characteristic of Stewart’s wilt. EsaR binds directly to the rcsA promoter to repress transcription at low cell density, and when this repression is relieved at high cell density, RcsA contributes to activation of the cps gene cluster, which encodes the stewartan biosynthetic pathway. Exopolysaccharide production can be visualized by the growth of mucoid colonies on casamino acid-peptone-glucose (CPG) agar plates, and this phenotypic assay is commonly used to evaluate EsaR-mediated QS in P. stewartii. , To investigate the ability of the synthetic EsaR agonists uncovered here to regulate a QS-controlled phenotype in P. stewartii, selected compounds were tested for their ability to induce mucoidy in the P. stewartii (ΔesaI) strain, ESN51 (Figure ).
# P. stewartii ΔesaI (ESN51) was grown on Casamino Peptone Glucose (CPG) agar (1 g/L casamino acids, 10 g/L peptone, 10 g/L glucose, 17 g/L agar) supplemented with a 1:1000 dilution of compound stocks or DMSO. Plates were incubated at 28 °C for 2 days without shaking before imaging with a smartphone camera (Apple iPhone X). Images are representative of at least two biological replicates.
# [2] = biological target: T1, EsaR (Pantoea stewartii subsp. stewartii, UniProt P54293); test: cell-based; details: for activation at 100 µM / inhibition at 100 µM: 3.5 h; for activation at 100 µM: read-out: EsaR-repressed (pesaR) [%] agonism; for inhibition at 100 µM: read-out: EsaR-repressed (pesaR) antagonism
# T1 construct: expressed in transfected cells; host or cells: E. coli JLD271 (K12 ΔsdiA), arabinose-induced pJN105-esaR
# Source text: (§1) EsaR transcriptional activation and repression were examined using E. coli and P. stewartii reporters (strains and plasmids listed in Table S1; see Methods section for assay details). […] We constructed reporters in E. coli based on previously reported EsaR reporters (Table S1). Each strain contained an EsaR expression plasmid (pJN105-esaR) and a reporter plasmid with either an EsaR-activated promoter (pesaS) or an EsaR-repressed promoter (pesaR) upstream of luxABCDE or GFP.
# (§2) Gibson assembly was used to create all constructs. Plasmid pJN105-esaR was created by amplifying esaR from pAC-esaR and inserting it into pJN105. pesaSlux was created by inserting pesaS, amplified from pPesaR-AC:gfp, into the pCS-pesaRlux backbone. The pesaR promoter was amplified from pCS-pesaRlux and inserted into the pPesaR-AC:gfp backbone to create pesaR:GFP. P. stewartii reporter strains were created by transforming pesaR:GFP or pPesaR-AC:gfp into ESN51 by conjugation using E. coli S17 λpir as the donor strain. See SI for details of E. coli ExpR2 reporter construction.
# (§3) Overnight cultures were diluted 1:10 in LB medium with appropriate antibiotics and grown at 37 °C (200 rpm) to an OD600 of 0.22–0.27 before induction with 4 mg mL^–1 arabinose. OD600 was measured by placing 200 μL of culture into a 96-well plate and reading optical density using the BioTek Synergy 2 plate reader. Assays were performed in technical triplicate in clear-bottom, white and clear-bottom, black 96-well microtiter plates (Corning Costar 3903 and 3904) for luminescence and fluorescence reporters, respectively. Compounds were dissolved in DMSO, and 2 μL of this stock, or DMSO as a negative control, was added to each well prior to adding 198 μL of induced culture. Plates were incubated at 37 °C (200 rpm) for 3.5 h. Each well was mixed by pipetting before reading OD600 and either luminescence or fluorescence. Single-point screens were performed with one or two biological replicates, and all dose–response curves were performed in biological triplicate. EC50 values were calculated based on a nonlinear regression of log(concentration) vs response (three parameters) using GraphPad Prism 9 software.
# [3] = biological target: T1, EsaR; test: cell-based; details: for activation at 100 µM / inhibition at 100 µM: 3.5 h; for activation at 100 µM: read-out: EsaR-activated (pesaS) [%] agonism; for inhibition at 100 µM: read-out: EsaR-activated (pesaS) antagonism; for EsaR agonism, in words: E. coli EsaR reporters, primary screen at 100 μM
# Source text: as §1, §2, §3
# [4] = test system: LuxR; details: cited from earlier work; for LuxR antagonism: 5 µM compound against 5 µM OHHL, negative values indicate potential activators, ref 6 (SI; Palmer et al., 2011); for LuxR [%] (agonism, activation): compounds at 200 μM, luminescence in V. fischeri ES114 (ΔluxI), ref Palmer et al., 2011 (main ref 44, SI ref 6)
# [5] = test system: ExpR1; details: cited from earlier work; for ExpR1 antagonism: 5 µM compound against 5 µM OHHL, negative values indicate potential activators, ref 6 (SI; Palmer et al., 2011); for ExpR1 [%] (agonism, activation): compounds at 200 μM, cellulase activity in P. versatile AC5117, ref Palmer et al., 2011 (main ref 44, SI ref 6)
# [6] = test system: ExpR2; details: cited from earlier work; for ExpR2 antagonism (percent inhibition): 5 µM compound against 5 µM OHHL, negative values indicate potential activators; for ExpR2 antagonism (percent inhibition) / IC50: ref 6 (SI; Palmer et al., 2011); for ExpR2 [%] (agonism, percent activation): compounds at 200 μM, cellulase activity in P. versatile AC5099, ref Palmer et al., 2011 (main ref 44, SI ref 6); for IC50: previously reported phenotypic reporter data
# T1 sequence (P54293 whole entry): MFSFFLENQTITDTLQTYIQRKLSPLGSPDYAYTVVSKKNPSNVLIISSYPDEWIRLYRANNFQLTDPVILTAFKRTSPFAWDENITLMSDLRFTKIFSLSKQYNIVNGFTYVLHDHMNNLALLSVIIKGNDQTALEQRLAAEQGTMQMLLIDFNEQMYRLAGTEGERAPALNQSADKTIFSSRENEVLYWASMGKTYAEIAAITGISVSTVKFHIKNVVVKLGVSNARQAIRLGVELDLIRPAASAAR
Compound,induction of mucoidy [1],activation at 100 µM [2] [%],inhibition at 100 µM [2] [%],activation at 100 µM [3] [%],inhibition at 100 µM [3] [%],LuxR antagonism [4] [%],"LuxR [%] (agonism, activation) [4]",ExpR1 antagonism [5] [%],"ExpR1 [%] (agonism, activation) [5]",ExpR2 antagonism (percent inhibition) [6] [%],"ExpR2 [%] (agonism, percent activation) [6]","EsaR agonism, in words [3]",IC50 [6] [nM],EC50 [2] [nM],EC50 [3] [nM]
CCCCCCS(=O)(=O)N[C@H]1CCOC1=O [A11],did not induce mucoidy,–,–,–,–,–,–,–,–,–,–,–,–,–,–
O=C(Cc1ccc2ccccc2c1)N[C@H]1CCOC1=O [E12],–,7,37,0,-10,83,2,58,8,5,56,–,–,–,–
O=C(Cc1cccc2ccccc12)N[C@H]1CCOC1=O [E13],–,0.5,-11,-11,-2,84,3,69,7,-6,95,–,–,–,–
"CCCCCC(=O)N[C@H]1CCOC1=O [HHL, hexanoyl HL, reference compound]",–,98,-126,100,-96,69,2,67,5,12,94,strongly activated,–,–,–
O=C(Cc1ccc(Br)cc1)N[C@H]1CCOC1=O [K3],–,18,-76,9,-24,79,3,71,4,62,25,–,850,–,–
"CCCCCCCC(=O)CC(=O)N[C@H]1CCOC1=O [ODHL, reference compound]",–,37,-94,65,-69,47,2,42,6,33,48,–,–,≥ 101000,≥ 65000
"CCCCCCCC(=O)N[C@H]1CCOC1=O [OHL, octanoyl HL, reference compound]",–,91,-40,98,-95,86,25,78,19,38,79,strongly activated; also recorded: agonized EsaR,–,–,–
"CCCCCC(=O)CC(=O)N[C@H]1CCOC1=O [OOHL, 3-(oxo)-octanoyl HL, reference compound]",–,91,-138,100,-89,63,24,65,29,26,78,strongly activated,–,–,–
"CCCCCCCCCC(=O)CC(=O)N[C@H]1CCOC1=O [OdDHL, 3-(oxo)-dodecanoyl HL, reference compound]",–,26,-10,34,-45,86,2,85,2,73,17,agonized EsaR,750,–,–
"CCCCCCCCCCCC(=O)CC(=O)N[C@H]1CCOC1=O [OtDHL, reference compound]",–,13,-53,16,-41,5,4,4,1,7,9,–,–,–,–
"CCCCCCCCCCCC(=O)N[C@H]1CCOC1=O [dDHL, reference compound]",–,35,-27,45,-63,73,1,77,0,62,31,–,–,–,–
"CCCCCCCCCCCCCCCC(=O)N[C@H]1CCOC1=O [hDHL, reference compound]",–,22,-71,25,-11,27,2,4,0,7,11,–,–,–,–

# From paper PMC12459020, “Chemical Probes that Target a Dissociative LuxR-Type Quorum Sensing Receptor in Gram-Negative Bacteria” (ACS Chemical Biology, 2025)
